Source: patent US12022827B2, “Compositions and methods to reduce dicamba volatility and provide plant essential nutrients” (THE BOARD OF TRUSTEES OF THE UNIVERSITY OF ARKANSAS, priority 2019, dated 2024)

How the values were obtained:
[1] = pH of tank mix, 2019 field trial; assay type: physicochemical
Protocol: (§1) A field trial was conducted to determine the effect of adding potassium borate to the herbicide dicamba with respect to the volatilization of dicamba and the movement of dicamba within the environment. In this trial, potassium borate was added to two highly volatile formulations of dicamba, Clarity® (BASF) and Clash™ (Nufarm Americas, Inc), in combination with glyphosate (Roundup PowerMax II®). […] The formulations were applied to a moistened silt loam soil in contained in two plastic trays and placed under 20-foot long tunnels between two rows of dicamba-sensitive (i.e., non-tolerant) soybean crop. […] Soybean injury was visually assessed at 14 and 21 days after initiation of the experiment. Likewise, the distance from the center of the tunnel to the furthest observed 5% level of injury was measured. Air samplers in the center of each tunnel were also used to quantify dicamba volatilization. […]
(§2) In order to evaluate a proprietary volatility reducing agent on several dicamba formulations, two low-tunnel trials were conducted in Fayetteville, Arkansas in 2019. […] Dicamba products evaluated included the diglycolamine (DGA) salt of dicamba (Xtendimax) plus a commercial volatility reduction agent (VaporGrip), DGA salt of dicamba (Clarity) with the volatility reduction agent BK3O3, the dimethylamine (DMA) salt of dicamba (Vanquish), and the DMA salt with BK3O3 along with a nontreated. […]

[2] = system: dicamba-sensitive soybean; assay: Low-tunnel field trial of dicamba volatilization, injury to dicamba-sensitive soybean (2019); assay type: in vivo; conditions: FIG. 1
Protocol: as §1, §2

[3] = system: soybean glufosinate-resistant cultivar (CDZ 4938); assay: Low-tunnel field trial of dicamba volatilization, visible injury to soybean bioindicator (2020); assay type: in vivo
Protocol: To further evaluate the efficacy of potassium tetraborate tetrahydrate in reducing volatilization of dicamba, a series of low-tunnel trials were conducted in Fayetteville, Arkansas in 2020, with each trial replicated twice. Experimental treatments were arranged as a single-factor randomized complete block design with three replications. […] A glufosinate-resistant cultivar (CDZ 4938) was planted on 36-inch spaced rows, serving as a bioindicator to quantify visible injury and distance traveled caused by dicamba volatility. Each low-tunnel placed in the field measured 5 by 20 ft (covering two rows of soybean). All tunnels were covered with transparent plastic to create an environment suitable for volatility and to contain the injury. After all tunnels were placed in the field, moistened flats of soil were placed 0.5 miles from the field and treated. Once treated, two flats were placed into appropriate tunnels between two rows of soybean with one flat on either side of a high-volume air sampler located in the center of each tunnel for 48 hours. Afterwards, the flats of soil, air samplers and tunnels were removed from the field. Immediately following trial initiation, pH of each spray solution was collected and analyzed. For data collection, soybean under each tunnel were divided into […] of 5 foot in length where visible injury was assessed on a 0 to 100 scale, where 0 equals no injury and 100 equals plant death. […] All data were subjected to analysis of variance and means separated using Fisher's protected least significance test (α=0.05)

[4] = Kborate concentration of 0.025 molar, even when mixed with the potassium salt of glyphosate
Protocol: To further evaluate the efficacy of potassium tetraborate tetrahydrate in reducing volatilization of dicamba, a series of low-tunnel trials were conducted in Fayetteville, Arkansas in 2020, with each trial replicated twice. Experimental treatments were arranged as a single-factor randomized complete block design with three replications. […] A glufosinate-resistant cultivar (CDZ 4938) was planted on 36-inch spaced rows, serving as a bioindicator to quantify visible injury and distance traveled caused by dicamba volatility. Each low-tunnel placed in the field measured 5 by 20 ft (covering two rows of soybean). All tunnels were covered with transparent plastic to create an environment suitable for volatility and to contain the injury. After all tunnels were placed in the field, moistened flats of soil were placed 0.5 miles from the field and treated. Once treated, two flats were placed into appropriate tunnels between two rows of soybean with one flat on either side of a high-volume air sampler located in the center of each tunnel for 48 hours. […] Immediately following trial initiation, pH of each spray solution was collected and analyzed. For data collection, soybean under each tunnel were divided into eight quadrants of 5 foot in length where visible injury was assessed on a 0 to 100 scale, where 0 equals no injury and 100 equals plant death. […]

[K+].[K+].[K+].[O-]B([O-])[O-] [potassium borate]
increase in tank mix pH ([1]; potassium borate 30 g/L added to various formulations of dicamba mixed with glyphosate): 1.9-2.15
increase of pH of tank mixes ([1]; potassium borate added to tank mixes comprising glyphosate and various formulations of dicamba): ≤ 2.15 pH units
reduction of sensitive soybean injury ([2]; potassium borate 30 g/L added, compared to standard tank mixes of dicamba or dicamba+glyphosate): ≤ 18%
reduction of injury to sensitive soybean ([2]; potassium borate added to dicamba, compared to standard tank mixes of dicamba): ≤ 18 percentage points

CP(=O)(O)CCC(N)C(=O)O (stereo not shown) [glufosinate, 2-amino-4-[hydroxy(methyl)phosphoryl]butanoic acid, reference compound]
average visual injury to soybean in comparison to dicamba plus glyphosate ([3]; glufosinate mixed with dicamba, FIG. 11, 21 days after treatment): increased average visual injury

potassium tetraborate tetrahydrate [Kborate]
reducing volatility of dicamba based on injury to soybean, compared with Kacetate ([3]; 0.015 molar concentration of Kborate): comparable to 0.05 moles of Kacetate
reducing volatility of a dicamba plus glyphosate mixture, compared with Kacetate ([3]; FIGS. 8-10, 21 days after treatment): outperformed Kacetate
dicamba volatility of dicamba and glufosinate mixtures ([3]; Kborate added, FIGS. 11-13, 21 days after treatment): reduced dicamba volatility, more so than did Kacetate
volatilization of a dicamba plus glyphosate mixture based on average and maximum injury ratings and distance to 5% injury to soybean ([3]; Kborate concentrations of 0.0125 molar or higher, 21 days after treatment, FIGS. 5-7): significantly reduced volatilization
pH of the spray solution [4]: above 6.0
